Laboratory results reported in PubChem BioAssay AID330 (DTP/NCI, 2004).
“And” between values parts separate entries of the source, which are not always exact repeats. Equal values may be shown once. Toxic doses and inconclusive results are not listed. How the source made its calls: active means survival T/C of 150% or more; inactive means T/C below 125% in these data.

Test system: P388 leukemia ip, CD2F1 mice, survival T/C
Experiment: NCI In Vivo Anticancer Drug Screen. Data for tumor model P388 Leukemia (intraperitoneal) in CD2F1 (CDF1) mice
Settings: endpoint: median survival time, higher = longer survival
Summary of the method: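 Mice carrying the transplanted tumor received test compound or vehicle. Survival was recorded in each group, and the value is the treated-group measurement divided by that of the vehicle-treated control group.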

[1] = dose: 50.0 mg/kg/injection, schedule: Q01DX009 (ip), vehicle: saline with Tween-80
[2] = dose: 100.0 mg/kg/injection, schedule: Q01DX009 (ip), vehicle: saline with Tween-80
[3] = dose: 200.0 mg/kg/injection, schedule: Q01DX009 (ip), vehicle: saline with Tween-80
[4] = dose: 50.0 mg/kg/injection, schedule: Q04DX002 (ip), vehicle: Klucel (hydroxypropylcellulose) (HPC)
[5] = dose: 100.0 mg/kg/injection, schedule: Q04DX002 (ip), vehicle: Klucel (hydroxypropylcellulose) (HPC)
[6] = dose: 200.0 mg/kg/injection, schedule: Q04DX002 (ip), vehicle: Klucel (hydroxypropylcellulose) (HPC)
[7] = dose: 12.5 mg/kg/injection, schedule: Q01DX009 (ip), vehicle: saline with Tween-80
[8] = dose: 50.0 mg/kg/injection, schedule: Q04DX003 (ip), vehicle: saline with Tween-80
[9] = dose: 12.5 mg/kg/injection, schedule: Q01DX009 (ip), vehicle: Klucel (hydroxypropylcellulose) (HPC)
[10] = dose: 7.5 mg/kg/injection, schedule: Q01DX005 (ip), vehicle: saline with Tween-80
[11] = dose: 15.0 mg/kg/injection, schedule: Q01DX005 (ip), vehicle: saline with Tween-80
[12] = dose: 30.0 mg/kg/injection, schedule: Q01DX005 (ip), vehicle: saline with Tween-80

Measured: T/C

C=C1[C@@H](OC(C)=O)C[C@@H]2C[C@]3(C)C(OC(C)=O)CC(C)(C)[C@@H]3C12O (stereo not given in full)
inactive: dose: 1.75 mg/kg/injection, schedule: Q01DX005 (ip), vehicle: saline 98 % of control | dose: 3.5 mg/kg/injection, schedule: Q01DX005 (ip), vehicle: saline 100 % of control | dose: 7.0 mg/kg/injection, schedule: Q01DX005 (ip), vehicle: saline 97 % of control

O=C1NC(=O)C2CCC12 (stereo not given)
inactive: [1] 100 % of control | [2] 100 % of control | [3] 100 % of control

CC(=O)Nc1ccc2c(c1)C(=O)c1ccccc1-2
inactive: dose: 100.0 mg/kg/injection, schedule: Q04DX003 (ip), vehicle: Klucel (hydroxypropylcellulose) (HPC) 100 % of control | dose: 200.0 mg/kg/injection, schedule: Q04DX003 (ip), vehicle: Klucel (hydroxypropylcellulose) (HPC) 110 % of control | dose: 400.0 mg/kg/injection, schedule: Q04DX003 (ip), vehicle: Klucel (hydroxypropylcellulose) (HPC) 110 % of control

Cc1c2cc(Cl)ccc2c(CSC(=N)N)c2ccc3ccccc3c12
inactive: [4] 100 % of control | [5] 102 % of control | [6] 107 % of control

CN(C)CC(O)C(=O)O (stereo not given)
inactive: dose: 25.0 mg/kg/injection, schedule: Q01DX005 (ip), vehicle: saline 96 % of control | dose: 50.0 mg/kg/injection, schedule: Q01DX005 (ip), vehicle: saline 98 % of control | dose: 100.0 mg/kg/injection, schedule: Q01DX005 (ip), vehicle: saline 95 % of control | dose: 200.0 mg/kg/injection, schedule: Q01DX005 (ip), vehicle: saline 96 % of control

CCC[CH2][Sn]([CH2]CCC)([CH2]CCC)[S]C(=S)NCCNC(=S)[S][Sn]([CH2]CCC)([CH2]CCC)[CH2]CCC
inactive: dose: 6.25 mg/kg/injection, schedule: Q01DX010 (ip), vehicle: saline 120 % of control

NC(=O)/C=C/C(=O)NC(=O)Cc1ccccc1
inactive: dose: 1.5 mg/kg/injection, schedule: Q01DX009 (ip), vehicle: saline with Tween-80 109 % of control | dose: 3.0 mg/kg/injection, schedule: Q01DX009 (ip), vehicle: saline with Tween-80 110 % of control and 119 % of control | dose: 6.0 mg/kg/injection, schedule: Q01DX009 (ip), vehicle: saline with Tween-80 109 % of control and 116 % of control

COc1ccc(-c2sc(C)nc2O)cc1
inactive: [1] 101 % of control | [2] 94 % of control | [3] 98 % of control

O=C(CBr)c1ccc(F)cc1
inactive: [7] 113 % of control | dose: 25.0 mg/kg/injection, schedule: Q04DX003 (ip), vehicle: saline with Tween-80 104 % of control | [8] 100 % of control

CC([NH-])C(=O)O.CC([NH-])C(=O)O.[Cu+2] (stereo not given)
inactive: [9] 99 % of control

C/C(C(=O)NC1CC1)=C(\C)c1ccc(Cl)cc1
inactive: [4] 100 % of control | [5] 103 % of control | [6] 102 % of control

CC(C)(O)C1OCC(C2CCC3(C)C4=CCC5C(C)(C)C(O)CCC5(C)C4CCC23C)CC1O (stereo not given)
inactive: dose: 2.5 mg/kg/injection, schedule: Q01DX009 (ip), vehicle: alcohol 98 % of control | dose: 5.0 mg/kg/injection, schedule: Q01DX009 (ip), vehicle: alcohol 101 % of control | dose: 10.0 mg/kg/injection, schedule: Q01DX009 (ip), vehicle: alcohol 100 % of control | dose: 20.0 mg/kg/injection, schedule: Q01DX009 (ip), vehicle: alcohol 99 % of control | dose: 40.0 mg/kg/injection, schedule: Q01DX009 (ip), vehicle: alcohol 110 % of control

N#Cc1ccc(NN=NCCS(=O)CCCl)cc1 (stereo not given)
inactive: dose: 6.25 mg/kg/injection, schedule: Q01DX009 (ip), vehicle: distilled water + Tween-80 100 % of control | dose: 12.5 mg/kg/injection, schedule: Q01DX009 (ip), vehicle: distilled water + Tween-80 111 % of control | dose: 25.0 mg/kg/injection, schedule: Q01DX009 (ip), vehicle: distilled water + Tween-80 112 % of control

CCCOc1ccc(C(=O)NCc2cccnc2)cc1C(=O)NCc1cccnc1
inactive: dose: 50.0 mg/kg/injection, schedule: Q01DX005 (ip), vehicle: saline with Tween-80 100 % of control | dose: 100.0 mg/kg/injection, schedule: Q01DX005 (ip), vehicle: saline with Tween-80 99 % of control | dose: 200.0 mg/kg/injection, schedule: Q01DX005 (ip), vehicle: saline with Tween-80 100 % of control

CCOC(=O)C1=C(C)OC(C)(/N=C(\C#N)C(=O)OC)C1c1ccccc1 (stereo not given)
inactive: dose: 60.0 mg/kg/injection, schedule: Q01DX005 (ip), vehicle: saline with Tween-80 93 % of control | dose: 120.0 mg/kg/injection, schedule: Q01DX005 (ip), vehicle: saline with Tween-80 95 % of control | dose: 240.0 mg/kg/injection, schedule: Q01DX005 (ip), vehicle: saline with Tween-80 98 % of control

CCCCCCCCSc1nc(Nc2cc(C(C)(C)C)c(O)c(C(C)(C)C)c2)nc(SCCCCCCCC)n1
inactive: [7] 105 % of control | dose: 25.0 mg/kg/injection, schedule: Q01DX009 (ip), vehicle: saline with Tween-80 104 % of control | [1] 99 % of control and 92 % of control | [3] 100 % of control

CCOc1ccc2nc3ccccc3c(N)c2c1
inactive: [10] 103 % of control and 112 % of control | [11] 113 % of control | [12] 124 % of control

CSC(=S)n1nc(C)c(N=Nc2ccc(Br)cc2)c1C
inactive: [5] 107 % of control | [6] 103 % of control | dose: 400.0 mg/kg/injection, schedule: Q04DX002 (ip), vehicle: Klucel (hydroxypropylcellulose) (HPC) 103 % of control

Cc1nc(C)n2c(C)nnc2c1C
inactive: dose: 25.0 mg/kg/injection, schedule: Q04DX003 (ip), vehicle: saline 101 % of control | dose: 50.0 mg/kg/injection, schedule: Q04DX003 (ip), vehicle: saline 111 % of control | dose: 100.0 mg/kg/injection, schedule: Q04DX003 (ip), vehicle: saline 109 % of control

Cc1cc(NS(=O)(=O)c2ccc(N)cc2)no1.[Ag]
inactive: [9] 89 % of control | dose: 25.0 mg/kg/injection, schedule: Q01DX009 (ip), vehicle: Klucel (hydroxypropylcellulose) (HPC) 101 % of control | dose: 50.0 mg/kg/injection, schedule: Q01DX009 (ip), vehicle: Klucel (hydroxypropylcellulose) (HPC) 106 % of control

CN(C)CCCNc1cc(/C=C/c2cccc3ccccc23)nc2ccccc12
inactive: dose: 12.5 mg/kg/injection, schedule: Q01DX009 (ip), vehicle: saline 91 % of control | dose: 25.0 mg/kg/injection, schedule: Q01DX009 (ip), vehicle: saline 92 % of control | dose: 50.0 mg/kg/injection, schedule: Q01DX009 (ip), vehicle: saline 92 % of control

CC(=O)Nc1nc2c(=O)[nH]c(N)nc2n1C1OC(COC(C)=O)C(OC(C)=O)C1OC(C)=O (stereo not given)
inactive: [8] 96 % of control | dose: 100.0 mg/kg/injection, schedule: Q04DX003 (ip), vehicle: saline with Tween-80 100 % of control | dose: 200.0 mg/kg/injection, schedule: Q04DX003 (ip), vehicle: saline with Tween-80 105 % of control | dose: 400.0 mg/kg/injection, schedule: Q04DX003 (ip), vehicle: saline with Tween-80 102 % of control

C1=C[N-]c2c3c(ccc2=C1)=CC=C[N-]3.C1=C[N-]c2c3c(ccc2=C1)=CC=C[N-]3.C1=C[N-]c2c3c(ccc2=C1)=CC=C[N-]3.[Co+3].[O-][Cl+3]([O-])([O-])O
inactive: [10] 98 % of control | [11] 98 % of control | [12] 104 % of control
